{
  "source": "patent US4317770A",
  "about": "“D-amino acid analogs of beta-endorphin” (Hoffmann-La Roche Inc., priority 1977, dated 1982)",
  "key": {"[1]": {"tested_on": "mice", "assay": "analgesic potency in mice, tail-flick method, icv injection", "assay_type": "in vivo, mouse", "details": "for Relative Potency (analgesic potency): calculated on molar basis using the AD50 of βc-endorphin as 100%; for Relative Potency (analgesic potency) / AD50 / analgesic activity: mice, tail-flick; for AD50: 95% confidence limits in parentheses; for order of activity in the mouse tail flick method: human endorphin analogs vs camel endorphin analogs, route not stated", "protocol": "(§1) The analgesic properties of β-endorphin and its analogs were also assessed in mice by the tail-flick method of D'Amour and Smith, supra. The peptides, dissolved in saline, were injected either icv in a volume of 5 μl, according to the method described by Haley and McCormick, Brit. J. Pharmacol. 12, 12 (1957) or iv via the tail vein. To evaluate this analgesic response, a control latency (T0) was obtained from the mean of two latencies determined prior to drug injections, and the test latencies (T1) were determined at various times after injection for each animal. \"Percent analgesic\" was calculated as [(T1 -T0)/[…]]×100, where the cut off time (T2) was 10 sec."}, "[2]": {"tested_on": "myenteric plexus longitudinal muscle preparation from guinea pig ileum", "assay": "opiate activity, guinea pig ileum assay (electrically stimulated)", "assay_type": "cell-based", "details": "for IC50: in vitro; for Relative Potency: relative to βc-endorphin = 100; for order of activity in the guinea pig ileum assay: human endorphin analogs vs camel endorphin analogs", "protocol": "(§2) The opiate activities of the analogs relative to βc -endorphin were measured in vitro in the guinea pig ileum (Brit. J. Pharmacol. 39, 398 (1970)) and in vivo by icv and iv injections using the tail-flick method (D'Amour and Smith, J. Pharmacol. Exp. Ther. 72,74 (1941). The results are summarized in Tables 2 and 3.\nThe opiate activity was assayed in vitro by electrically stimulated myenteric plexus longitudinal muscle preparation from guinea pig ileum by the method of Kosterlitz et al., supra."}, "[3]": {"tested_on": "leucine aminopeptidase", "details": "compared with enkephalin; cited from earlier work"}, "[4]": {"details": "cited from earlier work; for in vivo analgesic activity (duration): injected intracranially / centrally"}, "[5]": {"tested_on": "mice", "assay": "analgesic potency in mice, tail-flick method, iv injection", "assay_type": "in vivo, mouse", "details": "for inhibition of tail-flick response: iv", "protocol": "as §2, §1"}, "[6]": {"details": "injected into the peripheral system; cited from earlier work"}},
  "note": "“Also recorded” adds a separate entry of the source.",
  "data": [
    {"compound": "[D-Tyr^1 ]-βc -endorphin [[D-Tyr^1]-βc -EP]", "values": [
      {"measurement": "Relative Potency (analgesic potency)", "setting": "[1]", "value": 0.5, "unit": "%"},
      {"measurement": "AD50", "setting": "[1]; icv", "value": "22.5 (13.4-37.8) μg/25 g mouse"},
      {"measurement": "IC50", "setting": "[2]; guinea pig ileum", "value": 2900, "unit": "nM"},
      {"measurement": "Relative Potency", "setting": "[2]", "value": "≤ 1"}
    ]},
    {"compound": "βc -endorphin: β-endorphin having a sequence derived from camel; synthesized as control (YGGFMTSEKSQTPLVTLFKNAIIKNAHKKGQ; Beta-endorphin; UniProt P01203 1-31, looked up) [reference compound]", "values": [
      {"measurement": "Relative Potency (analgesic potency)", "setting": "[1]", "value": 100.0, "unit": "%"},
      {"measurement": "analgesic activity", "setting": "[1]; icv", "value": "much more active than morphine"},
      {"measurement": "AD50", "setting": "[1]; icv", "value": "0.11 (0.07-0.17) μg/25 g mouse"},
      {"measurement": "resistance to attack by leucine aminopeptidase", "setting": "[3]", "value": "substantially more resistant to attack by leucine aminopeptidase than is enkephalin"},
      {"measurement": "IC50", "setting": "[2]; guinea pig ileum", "value": 27, "unit": "nM"},
      {"measurement": "Relative Potency", "setting": "[2]", "value": 100}
    ]},
    {"compound": "[D-Met^5 ]-βh -endorphin", "values": [
      {"measurement": "order of activity in the mouse tail flick method", "setting": "[1]", "value": "same order of activity"},
      {"measurement": "order of activity in the guinea pig ileum assay", "setting": "[2]", "value": "same order of activity"}
    ]},
    {"compound": "[D-Ala^2 ]-enkephalin", "values": [
      {"measurement": "in vivo analgesic activity (duration)", "setting": "[4]", "value": "long-lasting analgesia"}
    ]},
    {"compound": "CC(C)C[C@H](NC(=O)[C@H](Cc1ccccc1)NC(=O)CNC(=O)CNC(=O)[C@@H](N)Cc1ccc(O)cc1)C(=O)O", "note": "[enkephalin]", "values": [
      {"measurement": "in vivo analgesic activity (duration)", "setting": "[4]", "value": "short duration"}
    ]},
    {"compound": "[D-Phe^4 ]-βc -endorphin [[D-Phe^4]-βc -EP]", "values": [
      {"measurement": "Relative Potency (analgesic potency)", "setting": "[1]", "value": "< 0.3", "unit": "%"},
      {"measurement": "behavioural effect (hyperreactivity)", "setting": "[1]; icv, doses up to 43 μg", "value": "hyperreactivity to touch or vocal stimulation"},
      {"measurement": "inhibition of tail-flick response", "setting": "[1]; icv, doses up to 43 μg", "value": "not active"},
      {"measurement": "AD50", "setting": "[1]; icv", "value": "> 43", "unit": "μg/25 g mouse"},
      {"measurement": "IC50", "setting": "[2]; guinea pig ileum", "value": 670, "unit": "nM"},
      {"measurement": "Relative Potency", "setting": "[2]", "value": 4}
    ]},
    {"compound": "[D-Ala^2 ]-βh -endorphin", "values": [
      {"measurement": "order of activity in the mouse tail flick method", "setting": "[1]", "value": "same order of activity"},
      {"measurement": "order of activity in the guinea pig ileum assay", "setting": "[2]", "value": "same order of activity"}
    ]},
    {"compound": "[D-Ala^2 ]-β-enkephalinamide", "values": [
      {"measurement": "in vivo analgesic activity (duration)", "setting": "[4]", "value": "long-lasting analgesia"},
      {"measurement": "analgesic activity compared with enkephalin", "setting": "[4]; relative to enkephalin, route not stated at the place", "value": "greater analgesic activity"}
    ]},
    {"compound": "[D-Ala^2 ]-βc -endorphin [[D-Ala^2]-βc -EP]", "values": [
      {"measurement": "Relative Potency (analgesic potency)", "setting": "[1]", "value": 100.0, "unit": "%"},
      {"measurement": "Relative Potency (analgesic potency)", "setting": "[1]; listed as [D-Ala^2 ]-βc -endorphin", "value": 100, "unit": "%"},
      {"measurement": "antagonism of analgesic response by naloxone", "setting": "[1]; icv, doses of 0.11 to 0.42 μg", "value": "blocked by naloxone"},
      {"measurement": "duration of analgesic response", "setting": "[1]; icv, doses of 0.11 to 0.42 μg", "value": "30 to 90", "unit": "min"},
      {"measurement": "antagonism of analgesic response by naloxone", "setting": "[1]; icv, higher dose", "value": "also blocked by naloxone"},
      {"measurement": "duration of response at higher dose", "setting": "[1]; icv, higher dose", "value": "prolonged"},
      {"measurement": "analgesic activity", "setting": "[1]; icv", "value": "little alteration in analgesic activity"},
      {"measurement": "analgesic activity", "setting": "[1]; icv, listed as [D-Ala^2 ]-β-endorphin", "value": "most significant analgesic activity; also recorded: equipotent to βc -endorphin; also recorded: dose-related increase in analgesic response"},
      {"measurement": "AD50", "setting": "[1]; icv", "value": "0.11 (0.08-0.17) μg/25 g mouse"},
      {"measurement": "inhibition of tail-flick response", "setting": "[5]; 25.5 mg/kg", "value": "not active"},
      {"measurement": "activity in in vitro assay relative to parent molecule", "setting": "[2]; guinea pig ileum", "value": 43, "unit": "%"},
      {"measurement": "IC50", "setting": "[2]; guinea pig ileum", "value": 63, "unit": "nM"},
      {"measurement": "Relative Potency", "setting": "[2]", "value": 43}
    ]},
    {"compound": "[D-Tyr^1 ]-βh -endorphin", "values": [
      {"measurement": "order of activity in the mouse tail flick method", "setting": "[1]", "value": "same order of activity"},
      {"measurement": "order of activity in the guinea pig ileum assay", "setting": "[2]", "value": "same order of activity"}
    ]},
    {"compound": "[D-Met^5 ]-βc -endorphin [[D-Met^5]-βc -EP]", "values": [
      {"measurement": "Relative Potency (analgesic potency)", "setting": "[1]", "value": 1.0, "unit": "%"},
      {"measurement": "analgesic activity", "setting": "[1]; icv", "value": "still possesses analgesic activity"},
      {"measurement": "AD50", "setting": "[1]; icv", "value": "11.48 (7.17-18.36) μg/25 g mouse"},
      {"measurement": "inhibition of tail-flick response", "setting": "[5]; even at 120 mg/kg", "value": "not active"},
      {"measurement": "IC50", "setting": "[2]; guinea pig ileum", "value": 660, "unit": "nM"},
      {"measurement": "Relative Potency", "setting": "[2]", "value": 4}
    ]},
    {"compound": "β-endorphin", "values": [
      {"measurement": "in vivo analgesic activity, peripheral injection", "setting": "[6]", "value": "displays in vivo analgesic activity when injected into the peripheral system"},
      {"measurement": "in vivo analgesic activity (duration)", "setting": "[4]", "value": "long lasting"},
      {"measurement": "duration of action", "setting": "[5]; intravenous, comparison of β-endorphin with D-Ala^2 analog", "value": "longer than its D-Ala^2 analog"},
      {"measurement": "AD50", "setting": "[5]; iv injection", "value": 9.4, "unit": "mg/kg"},
      {"measurement": "analgesic activity after iv injection", "setting": "[5]; iv injection", "value": "potent analgesic"}
    ]},
    {"compound": "[D-Phe^4 ]-βh -endorphin", "values": [
      {"measurement": "order of activity in the mouse tail flick method", "setting": "[1]", "value": "same order of activity"},
      {"measurement": "order of activity in the guinea pig ileum assay", "setting": "[2]", "value": "same order of activity"}
    ]},
    {"compound": "CN1CC[C@]23c4c5ccc(O)c4O[C@H]2[C@@H](O)C=C[C@H]3[C@H]1C5.O=S(=O)(O)O", "note": "[Morphine sulfate, reference compound]", "values": [
      {"measurement": "AD50", "setting": "[1]; icv", "value": "0.42 (0.36-0.49) μg/25 g mouse"}
    ]}
  ]
}
